Measured values: ChEMBL document CHEMBL1777666 (Bioorg Med Chem Lett, 2009)

Columns and labels:
[1] = Inhibition of human recombinant aldose reductase 2 expressed in Escherichia coli BL21 after 10 mins by spectrophotometry analysis
[2] = target: Aldehyde reductase AKR1A1 (Homo sapiens); experiment: Inhibition of human recombinant aldehyde reductase after 10 mins by spectrophotometry analysis

Compound | IC50 [1] [nM] | IC50 [2] [nM]
O=C(O)Cn1cc(Cc2nc3c(F)c(F)cc(F)c3s2)c2ccccc21 [LIDORESTAT] | 5 | 
O=C(O)Cn1cc(Cc2nc3c(F)c(F)cc(F)c3s2)c2cccnc21 | 7 | 
Cc1ccc2c(Cc3nc4c(F)c(F)cc(F)c4s3)cn(CC(=O)O)c2n1 | 8 | > 100000
CCc1ccc2c(Cc3nc4c(F)c(F)cc(F)c4s3)cn(CC(=O)O)c2n1 | 12 | 
